Assay results reported in US10722501B2 (BAYER AKTIENGESELLSCHAFT, priority 2016, dated 2020).

Target: T1, recombinant full-length human prolyl endopeptidase (PREP) (Homo sapiens, UniProt P48147)
T1 construct: To recombinant full-length human prolyl endopeptidase (PREP, R&D-Systems, 4308-SE); purchased R&D-Systems 4308-SE
T1 sequence (P48147 1-710): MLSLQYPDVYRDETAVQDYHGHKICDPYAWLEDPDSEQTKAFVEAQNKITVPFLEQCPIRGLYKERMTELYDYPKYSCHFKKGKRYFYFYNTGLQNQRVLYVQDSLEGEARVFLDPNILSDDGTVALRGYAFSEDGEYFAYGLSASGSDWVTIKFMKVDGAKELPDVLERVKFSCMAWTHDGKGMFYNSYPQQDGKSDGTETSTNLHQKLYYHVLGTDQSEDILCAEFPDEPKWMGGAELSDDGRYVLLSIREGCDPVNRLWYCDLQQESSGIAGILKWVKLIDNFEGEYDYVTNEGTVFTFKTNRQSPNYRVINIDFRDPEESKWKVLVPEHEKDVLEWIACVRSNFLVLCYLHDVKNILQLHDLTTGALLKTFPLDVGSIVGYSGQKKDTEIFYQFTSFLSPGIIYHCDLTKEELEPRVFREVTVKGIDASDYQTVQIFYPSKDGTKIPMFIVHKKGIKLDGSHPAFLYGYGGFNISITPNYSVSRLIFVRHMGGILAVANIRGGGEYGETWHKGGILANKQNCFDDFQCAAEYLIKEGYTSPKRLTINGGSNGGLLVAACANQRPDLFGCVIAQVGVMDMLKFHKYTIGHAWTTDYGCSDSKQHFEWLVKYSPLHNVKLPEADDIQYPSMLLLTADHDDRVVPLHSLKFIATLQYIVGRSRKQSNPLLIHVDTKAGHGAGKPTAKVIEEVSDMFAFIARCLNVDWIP
Assay: Biochemical human prolyl endopeptidase (PREP) assay with fluorescently labelled substrate
Conditions: substrate Z-Gly-Pro-AMC 50 μM, 32° C., 60 min; some as mean values from multiple independent determinations
How it was run: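 Initial rates of fluorescence increase from 50 μM Z-Gly-Pro-AMC cleavage (ex 360/em 465 nm, 60 min, 32° C) give percent PREP activity versus no-compound control, and IC50 is interpolated. Enzyme used at 0.4 nM (final, example) in Tris pH 7.5 with EDTA, GSH, BSA and Brij-35; compounds span 1 nM to 30 μM.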

| SMILES | IC50 [nM] |
| --- | --- |
| O=C([C@@H]1CCCc2nn(Cc3ncc(Cl)cc3F)c(=O)n21)N1CCC(F)(F)C1 [Example 406, (5S)-2-[(5-Chloro-3-fluoropyridin-2-yl)methyl]-5-[(3,3-difluoropyrrolidin-1-yl)carbonyl]-5,6,7,8-tetrahydro[1,2,4]triazolo[4,3-a]pyridin-3(2H)-one] | 3.6 |
| O=C([C@@H]1CCCc2nn(Cc3ccc(C(F)(F)F)c(F)c3)c(=O)n21)N1C[C@@H](F)[C@@H](F)C1 [Example 472, (5S)-5-{[(3R,4S)-3,4-Difluoropyrrolidin-1-yl]carbonyl}-2-[3-fluoro-4-(trifluoromethyl)benzyl]-5,6,7,8-tetrahydro[1,2,4]triazolo[4,3-a]pyridin-3(2H)-one] | 0.245 |
| O=C([C@@H]1CCCc2nn(Cc3ccc(C(F)(F)F)cn3)c(=O)n21)N1CCCC1 [Example 531, (5S)-5-(Pyrrolidin-1-ylcarbonyl)-2-{[5-(trifluoromethyl)pyridin-2-yl]methyl}-5,6,7,8-tetrahydro[1,2,4]triazolo[4,3-a]pyridin-3(2H)-one] | 3 |
| Cc1ccc(C(F)(F)Cn2nc3n(c2=O)[C@H](C(=O)N2CC[C@H](F)C2)CCC3)cc1 [Example 517, (5S)-2-[2,2-Difluoro-2-(4-methylphenyl)ethyl]-5-{[(3S)-3-fluoropyrrolidin-1-yl]carbonyl}-5,6,7,8-tetrahydro[1,2,4]triazolo[4,3-a]pyridin-3(2H)-one] | 0.95 |
| O=C([C@@H]1CCCc2nn(Cc3ccnc(C(F)(F)F)c3F)c(=O)n21)N1CC[C@H](O)C1 [Example 479, (5S)-2-{[3-Fluoro-2-(trifluoromethyl)pyridin-4-yl]methyl}-5-{[(3S)-3-hydroxypyrrolidin-1-yl]carbonyl}-5,6,7,8-tetrahydro[1,2,4]triazolo[4,3-a]pyridin-3(2H)-one] | 25 |
| O=C([C@@H]1CCCc2nn(Cc3ccc(Cl)nc3)c(=O)n21)N1CC(F)C(F)C1 (single isomer, unassigned) [Example 552] | 6.4 |
| Cc1ccc(Cn2nc3n(c2=O)C(C(=O)N2CCCC2)C(C)CC3)cc1 (single isomer, unassigned) [Example 139, (5RS,6RS)-6-Methyl-2-(4-methylbenzyl)-5-(pyrrolidin-1-ylcarbonyl)-5,6,7,8-tetrahydro[1,2,4]triazolo[4,3-a]pyridin-3(2H)-one] | 0.87 |
| Cc1ccc(CCn2nc3n(c2=O)[C@H](C(=O)N2CCCC2)CCC3)cc1 [Example 521, (5S)-2-[2-(4-Methylphenyl)ethyl]-5-(pyrrolidin-1-ylcarbonyl)-5,6,7,8-tetrahydro[1,2,4]triazolo[4,3-a]pyridin-3(2H)-one] | 0.44 |
| O=C(C1CCCc2nn(Cc3ccc(OCC(F)(F)F)nc3)c(=O)n21)N1CCCC1 (racemic) [Example 153, (5RS)-5-(Pyrrolidin-1-ylcarbonyl)-2-{[6-(2,2,2-trifluoroethoxy)pyridin-3-yl]methyl}-5,6,7,8-tetrahydro[1,2,4]triazolo[4,3-a]pyridin-3(2H)-one] | 36 |
| O=C([C@@H]1CCCc2nn(Cc3cccc(C(F)(F)F)n3)c(=O)n21)N1C[C@@H](F)[C@@H](F)C1 [Example 371, (5S)-5-{[(3R,4S)-3,4-Difluoropyrrolidin-1-yl]carbonyl}-2-{[6-(trifluoromethyl)pyridin-2-yl]methyl}-5,6,7,8-tetrahydro[1,2,4]triazolo[4,3-a]pyridin-3(2H)-one] | 1.2 |
| Cc1cc(Cn2nc3n(c2=O)C(C(=O)N2CCCC2)CCC3)no1 (racemic) [Example 61, (5RS)-2-[(5-Methyl-1,2-oxazol-3-yl)methyl]-5-(pyrrolidin-1-ylcarbonyl)-5,6,7,8-tetrahydro[1,2,4]triazolo[4,3-a]pyridin-3(2H)-one] | 16 |
| O=C([C@@H]1CCCc2nn(CCc3ccc(F)cc3)c(=O)n21)N1C[C@@H](F)[C@@H](F)C1 [Example 344, (5S)-5-{[(3R,4S)-3,4-Difluoropyrrolidin-1-yl]carbonyl}-2-[2-(4-fluorophenyl)ethyl]-5,6,7,8-tetrahydro[1,2,4]triazolo[4,3-a]pyridin-3(2H)-one] | 0.53 |
| O=C([C@@H]1CCCc2nn(Cc3ncccc3Cl)c(=O)n21)N1CC(F)C1 [Example 396, (5S)-2-[(3-Chloropyridin-2-yl)methyl]-5-[(3-fluoroazetidin-1-yl)carbonyl]-5,6,7,8-tetrahydro[1,2,4]triazolo[4,3-a]pyridin-3(2H)-one] | 6 |
| CC(c1ccc(Cl)cc1)n1nc2n(c1=O)C(C(=O)N1CCCC1)CCC2 (racemic) [Example 3, (5RS)-2-[(1 RS)-1-(4-Chlorophenyl)ethyl]-5-(pyrrolidin-1-ylcarbonyl)-5,6,7,8-tetrahydro[1,2,4]triazolo[4,3-a]pyridin-3(2H)-one] | 6 |
| O=C([C@@H]1CCCc2nn(Cc3ccc(C(F)(F)F)c(Cl)c3)c(=O)n21)N1CCC(F)(F)C1 [Example 460, (5S)-2-[3-Chloro-4-(trifluoromethyl)benzyl]-5-[(3,3-difluoropyrrolidin-1-yl)carbonyl]-5,6,7,8-tetrahydro[1,2,4]triazolo[4,3-a]pyridin-3(2H)-one] | 0.17 |
| CC1CCC(C(=O)N2CC(F)C2)n2c1nn(Cc1ccc(F)c(Cl)c1)c2=O (racemic) [Example 321, (5RS,8RS)-2-(3-Chloro-4-fluorobenzyl)-5-[(3-fluoroazetidin-1-yl)carbonyl]-8-methyl-5,6,7,8-tetrahydro[1,2,4]triazolo[4,3-a]pyridin-3(2H)-one] | 0.93 |
| O=C(C1CCCc2nn(Cc3cccc(Cl)c3)c(=O)n21)N1CCCC1 (racemic) [Example 38, (5RS)-2-(3-Chlorobenzyl)-5-(pyrrolidin-1-ylcarbonyl)-5,6,7,8-tetrahydro[1,2,4]triazolo[4,3-a]pyridin-3(2H)-one] | 1 |
| O=C([C@@H]1CCCc2nn(Cc3cnc(C(F)(F)F)c(Cl)c3)c(=O)n21)N1CCC(F)(F)C1 [Example 441, (5S)-2-{[5-Chloro-6-(trifluoromethyl)pyridin-3-yl]methyl}-5-[(3,3-difluoropyrrolidin-1-yl)carbonyl]-5,6,7,8-tetrahydro[1,2,4]triazolo[4,3-a]pyridin-3(2H)-one] | 2 |
| CC1Cc2nn(Cc3ccc(C(F)(F)F)nc3)c(=O)n2C(C(=O)N2C[C@@H](F)[C@@H](F)C2)C1 (single isomer, unassigned) [Example 337] | 7.5 |
| O=C(C1CCc2nn(Cc3ccc(C(F)(F)F)nc3)c(=O)n21)N1CC[C@H](F)C1 (mixture of isomers) [Example 164, (5RS)-5-{[(3S)-3-Fluoropyrrolidin-1-yl]carbonyl}-2-{[6-(trifluoromethyl)pyridin-3-yl]methyl}-2,5,6,7-tetrahydro-3H-pyrrolo[2,1-c][1,2,4]triazol-3-one] | 3.7 |
| O=C(C1CCCc2nn(CC3CCC(F)(F)CC3)c(=O)n21)N1CCCC1 (racemic) [Example 41, (5RS)-2-[(4,4-Difluorocyclohexyl)methyl]-5-(pyrrolidin-1-ylcarbonyl)-5,6,7,8-tetrahydro[1,2,4]triazolo[4,3-a]pyridin-3(2H)-one] | 13 |
| O=C([C@@H]1CCCc2nn(Cc3cc(C(F)(F)F)nc4ccccc34)c(=O)n21)N1CC[C@H](F)C1 [Example 539, (5S)-5-{[(3S)-3-Fluoropyrrolidin-1-yl]carbonyl}-2-{[2-(trifluoromethyl)quinolin-4-yl]methyl}-5,6,7,8-tetrahydro[1,2,4]triazolo[4,3-a]pyridin-3(2H)-one] | 0.85 |
| O=C([C@@H]1CCc2nn(Cc3ccc(Cl)nc3)c(=O)n21)N1CCCC1 [Example 52, (5S)-2-[(6-Chloropyridin-3-yl)methyl]-5-(pyrrolidin-1-ylcarbonyl)-2,5,6,7-tetrahydro-3H-pyrrolo[2,1-c][1,2,4]triazol-3-one] | 4.6 |
| Cc1ccc(Cn2nc3n(c2=O)C(C(=O)N2CC[C@H](O)C2)CCC3)cc1 (single isomer, unassigned) [Example 116] | 3 |
| Cc1cc(Cn2nc3n(c2=O)C(C(=O)N2CC(F)C2)CCC3)on1 (racemic) [Example 417, (5RS)-5-[(3-Fluoroazetidin-1-yl)carbonyl]-2-[(3-methyl-1,2-oxazol-5-yl)methyl]-5,6,7,8-tetrahydro[1,2,4]triazolo[4,3-a]pyridin-3(2H)-one] | 18 |
| O=C(C1C(C(F)(F)F)CCc2nn(Cc3ccnc(C(F)(F)F)c3F)c(=O)n21)N1CC(F)C1 (single isomer, unassigned) [Example 303, (5RS,6RS)-5-[(3-Fluoroazetidin-1-yl)carbonyl]-2-{[3-fluoro-2-(trifluoromethyl)pyridin-4-yl]methyl}-6-(trifluoromethyl)-5,6,7,8-tetrahydro[1,2,4]triazolo[4,3-a]pyridin-3(2H)-one] | 35 |
